± gives the standard deviation of the averaged measurements.
Experiments:
Assay in all cases: relative viability vs DMSO control (72 h) (fraction); higher = more viable cells
[1] = test system: SW982
Procedure, shortened: (§1)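 Sarcoma cell lines were seeded in 384-well plates at densities set to reach 80–90% confluence. After 24 h, 2.5 µl of serially diluted compound was added (source plates 10 mM to 0.0002 mM), and plates were held 72 h at 37 °C, 5% CO2, with 0.1% DMSO vehicle and a 5 µM positive control. Relative viability came from ATPLite readings as percent growth, averaged over up to triplicate wells. Data were rescaled so full viability equals 1 and none equals 0.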

[2] = test system: G401
Procedure, shortened: as §1

[3] = test system: SYO-1
Procedure, shortened: as §1

[4] = test system: A204
Procedure, shortened: as §1

[5] = test system: SK-ES-1
Procedure, shortened: as §1

[6] = test system: SW872
Procedure, shortened: as §1

[7] = test system: SW1353
Procedure, shortened: as §1

[8] = test system: SW684
Procedure, shortened: as §1

[9] = test system: RD-ES
Procedure, shortened: as §1

[10] = test system: KHOS-240S
Procedure, shortened: as §1

[11] = test system: HT1080
Procedure, shortened: as §1

[12] = test system: KHOS-NP
Procedure, shortened: as §1

NC(=O)c1cnc2[nH]ccc2c1N[C@@H]1[C@@H]2CC3C[C@H]1C[C@@](O)(C3)C2 [Peficitinib]
relative viability ([1]; 0.00017 µM): 1.03 ± 0.021 | relative viability ([1]; 0.00051 µM): 1.03 ± 0.0094 | relative viability ([1]; 0.00152 µM): 1.016 ± 0.0054 | relative viability ([1]; 0.00457 µM): 1.03 ± 0.015 | relative viability ([1]; 0.01372 µM): 1.02 ± 0.015 | relative viability ([1]; 0.04115 µM): 1.05 ± 0.011 | relative viability ([1]; 0.1235 µM): 1.032 ± 0.0072 | relative viability ([1]; 0.3704 µM): 0.986 ± 0.074 | relative viability ([1]; 1.111 µM): 0.934 ± 0.12 | relative viability ([1]; 3.333 µM): 0.751 ± 0.07 | relative viability ([1]; 10 µM): 0.397 ± 0.0061 | relative viability ([2]; 0.00017 µM): 0.9962 ± 0.0097 | relative viability ([2]; 0.00051 µM): 1.01 ± 0.013 | relative viability ([2]; 0.00152 µM): 1 ± 0.042 | relative viability ([2]; 0.00457 µM): 1.01 ± 0.012 | relative viability ([2]; 0.01372 µM): 1.05 ± 0.023 | relative viability ([2]; 0.04115 µM): 1.04 ± 0.021 | relative viability ([2]; 0.1235 µM): 1.08 ± 0.028 | relative viability ([2]; 0.3704 µM): 1.14 ± 0.047 | relative viability ([2]; 1.111 µM): 1.19 ± 0.037 | relative viability ([2]; 3.333 µM): 1.14 ± 0.049 | relative viability ([2]; 10 µM): 1.01 ± 0.025 | relative viability ([3]; 0.00017 µM): 1 ± 0.032 | relative viability ([3]; 0.00051 µM): 0.981 ± 0.03 | relative viability ([3]; 0.00152 µM): 0.985 ± 0.04 | relative viability ([3]; 0.00457 µM): 0.995 ± 0.013 | relative viability ([3]; 0.01372 µM): 0.975 ± 0.015 | relative viability ([3]; 0.04115 µM): 0.97 ± 0.039 | relative viability ([3]; 0.1235 µM): 0.953 ± 0.058 | relative viability ([3]; 0.3704 µM): 0.933 ± 0.055 | relative viability ([3]; 1.111 µM): 0.705 ± 0.062 | relative viability ([3]; 3.333 µM): 0.56 ± 0.054 | relative viability ([3]; 10 µM): 0.405 ± 0.014 | relative viability ([4]; 0.00017 µM): 1.06 ± 0.013 | relative viability ([4]; 0.00051 µM): 1.07 ± 0.039 | relative viability ([4]; 0.00152 µM): 1.07 ± 0.022 | relative viability ([4]; 0.00457 µM): 1.06 ± 0.045 | relative viability ([4]; 0.01372 µM): 1.06 ± 0.043 | relative viability ([4]; 0.04115 µM): 1.07 ± 0.062 | relative viability ([4]; 0.1235 µM): 1.02 ± 0.072 | relative viability ([4]; 0.3704 µM): 0.959 ± 0.057 | relative viability ([4]; 1.111 µM): 0.913 ± 0.031 | relative viability ([4]; 3.333 µM): 0.705 ± 0.027 | relative viability ([4]; 10 µM): 0.435 ± 0.028 | relative viability ([5]; 0.00017 µM): 0.984 ± 0.043 | relative viability ([5]; 0.00051 µM): 1.01 ± 0.039 | relative viability ([5]; 0.00152 µM): 1.02 ± 0.043 | relative viability ([5]; 0.00457 µM): 0.97 ± 0.062 | relative viability ([5]; 0.01372 µM): 0.9884 ± 0.0051 | relative viability ([5]; 0.04115 µM): 1.02 ± 0.029 | relative viability ([5]; 0.1235 µM): 1.02 ± 0.081 | relative viability ([5]; 0.3704 µM): 1.04 ± 0.017 | relative viability ([5]; 1.111 µM): 0.989 ± 0.04 | relative viability ([5]; 3.333 µM): 0.796 ± 0.085 | relative viability ([5]; 10 µM): 0.102 ± 0.0019 | relative viability ([6]; 0.00017 µM): 1.01 ± 0.04 | relative viability ([6]; 0.00051 µM): 1.03 ± 0.014 | relative viability ([6]; 0.00152 µM): 1.037 ± 0.0068 | relative viability ([6]; 0.00457 µM): 0.985 ± 0.059 | relative viability ([6]; 0.01372 µM): 1.033 ± 0.0011 | relative viability ([6]; 0.04115 µM): 1.03 ± 0.03 | relative viability ([6]; 0.1235 µM): 1.02 ± 0.013 | relative viability ([6]; 0.3704 µM): 0.996 ± 0.037 | relative viability ([6]; 1.111 µM): 0.999 ± 0.065 | relative viability ([6]; 3.333 µM): 0.932 ± 0.076 | relative viability ([6]; 10 µM): 0.767 ± 0.026 | relative viability ([7]; 0.00017 µM): 1.03 ± 0.028 | relative viability ([7]; 0.00051 µM): 1.05 ± 0.034 | relative viability ([7]; 0.00152 µM): 1.01 ± 0.044 | relative viability ([7]; 0.00457 µM): 1.012 ± 0.01 | relative viability ([7]; 0.01372 µM): 1.04 ± 0.023 | relative viability ([7]; 0.04115 µM): 1.07 ± 0.046 | relative viability ([7]; 0.1235 µM): 1.04 ± 0.031 | relative viability ([7]; 0.3704 µM): 1.08 ± 0.033 | relative viability ([7]; 1.111 µM): 1.09 ± 0.025 | relative viability ([7]; 3.333 µM): 1.09 ± 0.032 | relative viability ([7]; 10 µM): 0.988 ± 0.04 | relative viability ([8]; 0.00017 µM): 1.08 ± 0.056 | relative viability ([8]; 0.00051 µM): 1.09 ± 0.069 | relative viability ([8]; 0.00152 µM): 1.11 ± 0.032 | relative viability ([8]; 0.00457 µM): 1.12 ± 0.081 | relative viability ([8]; 0.01372 µM): 1.12 ± 0.044 | relative viability ([8]; 0.04115 µM): 1.12 ± 0.06 | relative viability ([8]; 0.1235 µM): 1.12 ± 0.045 | relative viability ([8]; 0.3704 µM): 1.15 ± 0.066 | relative viability ([8]; 1.111 µM): 1.17 ± 0.026 | relative viability ([8]; 3.333 µM): 1.09 ± 0.022 | relative viability ([8]; 10 µM): 0.827 ± 0.03 | relative viability ([9]; 0.00017 µM): 0.973 ± 0.036 | relative viability ([9]; 0.00051 µM): 0.99 ± 0.046 | relative viability ([9]; 0.00152 µM): 0.968 ± 0.025 | relative viability ([9]; 0.00457 µM): 0.963 ± 0.025 | relative viability ([9]; 0.01372 µM): 0.984 ± 0.035 | relative viability ([9]; 0.04115 µM): 0.981 ± 0.044 | relative viability ([9]; 0.1235 µM): 1 ± 0.051 | relative viability ([9]; 0.3704 µM): 1.01 ± 0.052 | relative viability ([9]; 1.111 µM): 1 ± 0.053 | relative viability ([9]; 3.333 µM): 0.986 ± 0.043 | relative viability ([9]; 10 µM): 0.227 ± 0.011 | relative viability ([10]; 0.00017 µM): 1.01 ± 0.021 | relative viability ([10]; 0.00051 µM): 1.05 ± 0.011 | relative viability ([10]; 0.00152 µM): 1.04 ± 0.018 | relative viability ([10]; 0.00457 µM): 1.05 ± 0.025 | relative viability ([10]; 0.01372 µM): 1.06 ± 0.03 | relative viability ([10]; 0.04115 µM): 1.07 ± 0.015 | relative viability ([10]; 0.1235 µM): 1.05 ± 0.019 | relative viability ([10]; 0.3704 µM): 1.04 ± 0.018 | relative viability ([10]; 1.111 µM): 1.03 ± 0.028 | relative viability ([10]; 3.333 µM): 0.837 ± 0.1 | relative viability ([10]; 10 µM): 0.498 ± 0.015 | relative viability ([11]; 0.00017 µM): 1.058 ± 0.0072 | relative viability ([11]; 0.00051 µM): 1.05 ± 0.042 | relative viability ([11]; 0.00152 µM): 1.06 ± 0.016 | relative viability ([11]; 0.00457 µM): 1.03 ± 0.011 | relative viability ([11]; 0.01372 µM): 1.03 ± 0.028 | relative viability ([11]; 0.04115 µM): 1.06 ± 0.012 | relative viability ([11]; 0.1235 µM): 1.06 ± 0.012 | relative viability ([11]; 0.3704 µM): 1.11 ± 0.028 | relative viability ([11]; 1.111 µM): 1.22 ± 0.047 | relative viability ([11]; 3.333 µM): 1.35 ± 0.028 | relative viability ([11]; 10 µM): 1.29 ± 0.094 | relative viability ([12]; 0.00017 µM): 1.09 ± 0.023 | relative viability ([12]; 0.00051 µM): 1.06 ± 0.029 | relative viability ([12]; 0.00152 µM): 1.08 ± 0.025 | relative viability ([12]; 0.00457 µM): 1.07 ± 0.035 | relative viability ([12]; 0.01372 µM): 1.05 ± 0.021 | relative viability ([12]; 0.04115 µM): 1.06 ± 0.045 | relative viability ([12]; 0.1235 µM): 1.07 ± 0.022 | relative viability ([12]; 0.3704 µM): 1.07 ± 0.033 | relative viability ([12]; 1.111 µM): 1.07 ± 0.038 | relative viability ([12]; 3.333 µM): 1.02 ± 0.071 | relative viability ([12]; 10 µM): 0.671 ± 0.016
